Results taken from patent publication US10004701B2, “Methods and compositions for treating infection” (UNIVERSITY OF ROCHESTER, priority 2012, dated 2018).
Where a name gives a salt, the structure may show the parent alone. Read-outs that look alike come from different tables or passages of the source.

Legend:
Assay in all cases: AK assay 384-well format, Prestwick library screening
[1] = test system: A. baumannii strain 98-37-09; format: cell-based, Acinetobacter baumannii; conditions: Acinetobacter baumannii, 983709, 3 h, 50 μM final drug concentration
[2] = test system: S. aureus strain USA300-0114; format: cell-based, Staphylococcus aureus; conditions: Staphylococcus aureus, USA300, 3 h, 50 μM final drug concentration
K. pneumoniae = format: cell-based, Klebsiella pneumoniae; conditions: Klebsiella pneumoniae, 3 h, 50 μM final drug concentration
E. faecium = format: cell-based, Enterococcus faecium; conditions: Enterococcus faecium, 3 h, 50 μM final drug concentration
P. aeruginosa = format: cell-based, Pseudomonas aeruginosa; conditions: Pseudomonas aeruginosa, 3 h, 50 μM final drug concentration
E. coli = format: cell-based, Escherichia coli; conditions: Escherichia coli, 3 h, 50 μM final drug concentration
E. cloacae = format: cell-based, Enterobacter cloacae; conditions: Enterobacter cloacae, 3 h, 50 μM final drug concentration
[3] = planktonic, cutoff for positive-scoring molecules 3-fold increase, read-out: AK-based Prestwick Library Screening Results, A. baumannii (fold increase in extracellular AK activity)
[4] = planktonic, cutoff for positive-scoring molecules 3-fold increase, read-out: AK-based Prestwick Library Screening Results, S. aureus (fold increase in extracellular AK activity)
[5] = planktonic, cutoff for positive-scoring molecules 3-fold increase, read-out: AK-based Prestwick Library Screening Results, K. pneumoniae (fold increase in extracellular AK activity)
[6] = planktonic, cutoff for positive-scoring molecules 3-fold increase, read-out: AK-based Prestwick Library Screening Results, E. faecium (fold increase in extracellular AK activity)
[7] = planktonic, cutoff for positive-scoring molecules 3-fold increase, read-out: AK-based Prestwick Library Screening Results, P. aeruginosa (fold increase in extracellular AK activity)
[8] = planktonic, cutoff for positive-scoring molecules 3-fold increase, read-out: AK-based Prestwick Library Screening Results, E. coli (fold increase in extracellular AK activity)
[9] = planktonic, cutoff for positive-scoring molecules 3-fold increase, read-out: AK-based Prestwick Library Screening Results, E. cloacae (fold increase in extracellular AK activity)

For `COc1cc2ccc(=O)oc2cc1O` [Scopoletin], the fold induction at 50 µM ([1]; cutoff for positive-scoring molecules 3-fold increase, read-out: AK-based Prestwick Library Screening Results, A. baumannii (fold increase in extracellular AK activity)) was 0.4, the fold induction at 50 µM ([2]; cutoff for positive-scoring molecules 3-fold increase, read-out: AK-based Prestwick Library Screening Results, S. aureus (fold increase in extracellular AK activity)) was 0.3 and the fold induction at 50 µM (K. pneumoniae; cutoff for positive-scoring molecules 3-fold increase, read-out: AK-based Prestwick Library Screening Results, K. pneumoniae (fold increase in extracellular AK activity)) was 0.4. It also gave a fold induction at 50 µM (E. faecium; cutoff for positive-scoring molecules 3-fold increase, read-out: AK-based Prestwick Library Screening Results, E. faecium (fold increase in extracellular AK activity)) of 0.9, a fold induction at 50 µM (P. aeruginosa; cutoff for positive-scoring molecules 3-fold increase, read-out: AK-based Prestwick Library Screening Results, P. aeruginosa (fold increase in extracellular AK activity)) of 0.4 and a fold induction at 50 µM (E. coli; cutoff for positive-scoring molecules 3-fold increase, read-out: AK-based Prestwick Library Screening Results, E. coli (fold increase in extracellular AK activity)) of 0.4. For the same compound, the fold induction at 50 µM (E. cloacae; cutoff for positive-scoring molecules 3-fold increase, read-out: AK-based Prestwick Library Screening Results, E. cloacae (fold increase in extracellular AK activity)) was 0.3.
`CC(COc1ccccc1)N(CCCl)Cc1ccccc1` (centres unmarked) [Phenoxybenzamine hydrochloride] gave a fold induction at 50 µM ([1]; […], read-out: AK-based Prestwick Library Screening Results, A. baumannii (fold increase in extracellular AK activity)) of 1.3, a fold induction at 50 µM ([2]; […], read-out: AK-based Prestwick Library Screening Results, S. aureus (fold increase in extracellular AK activity)) of 1.1 and a fold induction at 50 µM (K. pneumoniae; […], read-out: AK-based Prestwick Library Screening Results, K. pneumoniae (fold increase in extracellular AK activity)) of 1.2. For the same compound, the fold induction at 50 µM (E. faecium; […], read-out: AK-based Prestwick Library Screening Results, E. faecium (fold increase in extracellular AK activity)) was 0.9, the fold induction at 50 µM (P. aeruginosa; […], read-out: AK-based Prestwick Library Screening Results, P. aeruginosa (fold increase in extracellular AK activity)) was 1.1 and the fold induction at 50 µM (E. coli; […], read-out: AK-based Prestwick Library Screening Results, E. coli (fold increase in extracellular AK activity)) was 1.4. For the same compound, the fold induction at 50 µM (E. cloacae; […], read-out: AK-based Prestwick Library Screening Results, E. cloacae (fold increase in extracellular AK activity)) was 1.4.
Compound `Nc1ncnc2c1ncn2[C@@H]1O[C@H](COP(=O)(O)O)[C@@H](O)[C@H]1O` [Adenosine 5′-monophosphate monohydrate] has a fold induction at 50 µM ([1]; planktonic A. baumannii, […], read-out: AK-based Prestwick Library Screening Results, A. baumannii (increase in extracellular AK activity)) of 0.7, a fold induction at 50 µM ([2]; planktonic S. aureus, […], read-out: AK-based Prestwick Library Screening Results, S. aureus (increase in extracellular AK activity)) of 0.6 and a fold induction at 50 µM (K. pneumoniae; planktonic K. pneumoniae, […], read-out: AK-based Prestwick Library Screening Results, K. pneumoniae (increase in extracellular AK activity)) of 0.6. It also gave a fold induction at 50 µM (E. faecium; planktonic E. faecium, […], read-out: AK-based Prestwick Library Screening Results, E. faecium (increase in extracellular AK activity)) of 0.8, a fold induction at 50 µM (P. aeruginosa; planktonic P. aeruginosa, […], read-out: AK-based Prestwick Library Screening Results, P. aeruginosa (increase in extracellular AK activity)) of 0.8 and a fold induction at 50 µM (E. coli; planktonic E. coli, […], read-out: AK-based Prestwick Library Screening Results, E. coli (increase in extracellular AK activity)) of 0.8. The fold induction at 50 µM (E. cloacae; planktonic E. cloacae, […], read-out: AK-based Prestwick Library Screening Results, E. cloacae (increase in extracellular AK activity)) was 1.2.
`c1ccc2c(CC3=NCCN3)cccc2c1` [Naphazoline hydrochloride] showed a fold induction at 50 µM ([1]; 384-well format, cutoff for positive-scoring molecules 3-fold increase, read-out: AK-based Prestwick Library Screening Results, A. baumannii (increase in extracellular AK activity)) of 1.1, a fold induction at 50 µM ([2]; 384-well format, cutoff for positive-scoring molecules 3-fold increase, read-out: AK-based Prestwick Library Screening Results, S. aureus (increase in extracellular AK activity)) of 1 and a fold induction at 50 µM (K. pneumoniae; 384-well format, cutoff for positive-scoring molecules 3-fold increase, read-out: AK-based Prestwick Library Screening Results, K. pneumoniae (increase in extracellular AK activity)) of 0.8. It also gave a fold induction at 50 µM (E. faecium; 384-well format, cutoff for positive-scoring molecules 3-fold increase, read-out: AK-based Prestwick Library Screening Results, E. faecium (increase in extracellular AK activity)) of 1.1, a fold induction at 50 µM (P. aeruginosa; 384-well format, cutoff for positive-scoring molecules 3-fold increase, read-out: AK-based Prestwick Library Screening Results, P. aeruginosa (increase in extracellular AK activity)) of 1 and a fold induction at 50 µM (E. coli; 384-well format, cutoff for positive-scoring molecules 3-fold increase, read-out: AK-based Prestwick Library Screening Results, E. coli (increase in extracellular AK activity)) of 1.3. The fold induction at 50 µM (E. cloacae; 384-well format, cutoff for positive-scoring molecules 3-fold increase, read-out: AK-based Prestwick Library Screening Results, E. cloacae (increase in extracellular AK activity)) was 1.5.
`CN(C/C=C/c1ccccc1)Cc1cccc2ccccc12` [Naftifine hydrochloride] gave a fold induction at 50 µM ([1]; planktonic A. baumannii, positive cutoff 3-fold increase, read-out: AK-based Prestwick library screening result, A. baumannii (fold increase in extracellular AK activity)) of 1.1, a fold induction at 50 µM ([2]; planktonic S. aureus, positive cutoff 3-fold increase, read-out: AK-based Prestwick library screening result, S. aureus (fold increase in extracellular AK activity)) of 0.8 and a fold induction at 50 µM (K. pneumoniae; planktonic K. pneumoniae, positive cutoff 3-fold increase, read-out: AK-based Prestwick library screening result, K. pneumoniae (fold increase in extracellular AK activity)) of 0.7. It also gave a fold induction at 50 µM (E. faecium; planktonic E. faecium, positive cutoff 3-fold increase, read-out: AK-based Prestwick library screening result, E. faecium (fold increase in extracellular AK activity)) of 1, a fold induction at 50 µM (P. aeruginosa; planktonic P. aeruginosa, positive cutoff 3-fold increase, read-out: AK-based Prestwick library screening result, P. aeruginosa (fold increase in extracellular AK activity)) of 0.8 and a fold induction at 50 µM (E. coli; planktonic E. coli, positive cutoff 3-fold increase, read-out: AK-based Prestwick library screening result, E. coli (fold increase in extracellular AK activity)) of 1. For the same compound, the fold induction at 50 µM (E. cloacae; planktonic E. cloacae, positive cutoff 3-fold increase, read-out: AK-based Prestwick library screening result, E. cloacae (fold increase in extracellular AK activity)) was 1.
`CC1(C)S[C@@H]2[C@H](NC(=O)[C@H](NC(=O)N3CCNC3=O)c3ccccc3)C(=O)N2[C@H]1C(=O)O` [Azlocillin sodium salt] was tested, and the fold induction at 50 µM [1, 3] was 2.1, the fold induction at 50 µM [2, 4] was 0.4 and the fold induction at 50 µM (K. pneumoniae; [5]) was 0.7. For the same compound, the fold induction at 50 µM (E. faecium; [6]) was 0.9, the fold induction at 50 µM (P. aeruginosa; [7]) was 9.7 and the fold induction at 50 µM (E. coli; [8]) was 12.3. It also gave a fold induction at 50 µM (E. cloacae; [9]) of 1.
Compound `Nc1ccccc1S(N)(=O)=O` [Compound 2-Aminobenzenesulfonamide, 2-Aminobenzenesulfonamide] has a fold induction at 50 µM [1, 3] of 0.9, a fold induction at 50 µM [2, 4] of 0.8 and a fold induction at 50 µM (K. pneumoniae; [5]) of 0.7. For the same compound, the fold induction at 50 µM (E. faecium; [6]) was 0.9, the fold induction at 50 µM (P. aeruginosa; [7]) was 0.9 and the fold induction at 50 µM (E. coli; [8]) was 1.1. It also gave a fold induction at 50 µM (E. cloacae; [9]) of 1.4.
With `Cc1cc(C(C)(C)C)cc(C)c1CC1=NCCN1` [Xylometazoline hydrochloride] the fold induction at 50 µM ([1]; planktonic A. baumannii, 384-well, […], read-out: AK-based Prestwick Library Screening Results: A. baumannii (increase in extracellular AK activity)) was 1.3, the fold induction at 50 µM ([2]; planktonic S. aureus, 384-well, […], read-out: AK-based Prestwick Library Screening Results: S. aureus (increase in extracellular AK activity)) was 1.2 and the fold induction at 50 µM (K. pneumoniae; planktonic K. pneumoniae, 384-well, cutoff for positive-scoring molecules 3-fold increase, read-out: AK-based Prestwick Library Screening Results: K. pneumoniae (increase in extracellular AK activity)) was 0.9. The fold induction at 50 µM (E. faecium; planktonic E. faecium, 384-well, cutoff for positive-scoring molecules 3-fold increase, read-out: AK-based Prestwick Library Screening Results: E. faecium (increase in extracellular AK activity)) was 1, the fold induction at 50 µM (P. aeruginosa; planktonic P. aeruginosa, 384-well, […], read-out: AK-based Prestwick Library Screening Results: P. aeruginosa (increase in extracellular AK activity)) was 1.2 and the fold induction at 50 µM (E. coli; planktonic E. coli, 384-well, […], read-out: AK-based Prestwick Library Screening Results: E. coli (increase in extracellular AK activity)) was 1.2. It also gave a fold induction at 50 µM (E. cloacae; planktonic E. cloacae, 384-well, […], read-out: AK-based Prestwick Library Screening Results: E. cloacae (increase in extracellular AK activity)) of 1.4.
